Values quoted from earlier work in patent EP4260848A1, “PHARMACEUTICAL COMPOSITION FOR SOLID DOSAGE FORM CONTAINING NILOTINIB AND PROCESS FOR ITS PREPARATION” (Lotus Pharmaceutical Co., Ltd., priority 2022, dated 2023).
Where a name gives a salt, the structure may show the parent alone.

Assays:
[1] = not given; remark: listed apart in the source

| aqueous solubility (all solid forms (anhydrates, hydrates, solvates)) | solubility in aqueous solutions (dependence on pH) | pKa1 ([1]; determined) | pKa2 ([1]; estimated) | SMILES |
| --- | --- | --- | --- | --- |
| poor aqueous solubility | – | – | – | Cc1cn(-c2cc(NC(=O)c3ccc(C)c(Nc4nccc(-c5cccnc5)n4)c3)cc(C(F)(F)F)c2)cn1 [Nilotinib hydrochloride] |
| – | decreases with increasing pH | 2.1 | 5.4 | Cc1cn(-c2cc(NC(=O)c3ccc(C)c(Nc4nccc(-c5cccnc5)n4)c3)cc(C(F)(F)F)c2)cn1 [Nilotinib, 4-methyl-N-[3-(4-methylimidazol-1-yl)-5-(trifluoromethyl)phenyl]-3-[(4-pyridin-3-ylpyrimidin-2-yl)amino]benzamide] |
